One compound from ChEMBL document CHEMBL1145704, “Absolute Configuration of 2,6-Dimethylheptyl Sulfate and Its Distribution in Ascidiacea” (J Nat Prod, 1997) can be followed below.

For one data set, the system named is Gambusia affinis. Kind of data set: Toxicity in Gambusia affinis upto 100 ug/mL by lethality assay. Type of data set: organism-based. To be noted: in vivo.
A short description of data set [1]: Toxicity against Artemia salina L EACH. It is filed as organism-based. To be noted: in vivo.

For the compound `CC(C)CCC[C@@H](C)COS(=O)(=O)[O-].[Na+]`, the Activity result in the data set on Gambusia affinis is “Non-toxic”. Besides, the LC50 in data set [1] worked out at 17.8 µg/mL.

The term LC50 denotes the concentration lethal to half of the exposed cells or organisms. A lower LC50 goes with a more lethal substance.
